One block for each compound: values may come before it.
Experiments:
globin = conditions: rats and mice exposed to 1,3-[2,3-14C]-butadiene; cited from earlier work
[1] = cited from earlier work
[2] = 6.25 to 1000 ppm, mice and rats; cited from earlier work
[3] = rodents given BDD or BMO; cited from earlier work
[4] = cited from earlier work; remark: listed apart in the source
[5] = buffer, pH 7.4
[6] = buffer, pH 9
[7] = buffer, pH 9; remark: listed apart in the source

Structure (SMILES): C=[14CH][14CH]=C [1,3-[2,3-^14C]-butadiene]
- Total globin radioactivity characterized as trihydroxybutyl adducts (globin): 1−2%

Structure (SMILES): C=CC=C [BD, 1,3-Butadiene]
- International Agency for Research on Cancer classification [1]: are carcinogenic to humans
- National Toxicology Program classification [1]: known to be a human carcinogen
- Tumor formation after long-term inhalation exposure [2]: tumor formation at multiple organ sites

Structure (SMILES): C=CC(O)CO (centres unmarked) [BDD, 3-butene-1,2-diol]
- Amount of BDD detected in the urine [3]: < 5%
- HMVK-derived mercapturates as share of the administered BDD dose [4]: 4−8%

- Time at which all of HMVK was consumed (HMVK 3 mM, NAC 6 mM, pH 7.4, 37 °C): 0.5 h
- Estimated half-life of HMVK, HMVK + NAC (buffer, pH 7.4): instantaneous
- Estimated half-life of HMVK, HMVK + NAL [6]: 45 min
- Estimated half-life of HMVK, HMVK + L-valinamide [7]: 13.5 min
Structure (SMILES): C=CC(=O)CO [HMVK, hydroxymethylvinyl ketone]
- Half-life of HMVK in the absence of nucleophilic amino acids [5]: a Half-life of HMVK when incubated at a concentration of 3 mM at pH 7.4, 37 °C in the absence of nucleophilic amino acids was determined to be 710 min. ND, not determined. Half-lives were estimated assuming pseudo-first order kinetics. Data is representative of typical experimental values.
